{"source": "patent US20050203168A1", "about": "“Angiotensin converting enzyme inhibitor use for treatment and prevention of gastrointestinal disorders” (The Regents of the University of Michigan, priority 2004, published 2005)", "key": {"[1]": {"system": "epithelial cell (EC) apoptosis", "assay": "Epithelial cell apoptosis/necrosis by Annexin V / propidium iodide flow cytometry in SBS and Sham mice given ACE-I", "format": "in vivo, mouse", "conditions": "0.6 mg/kg/day i.p., 1 week", "experimental": "(§1) Animals: Male, 2 month old, C57BL/6J mice (Jackson Laboratories, Bar Harbor, Me.) were maintained in a 12-hour day-night rhythm at 23° C. and a relative humidity of 40%-60%. 24 hours before surgery chow was exchanged to micro-stabilized rodent liquid diet (TestDiet, Richmond, Ind.). Anesthesia was achieved using sodium pentobarbital (50 mg/kg body weight, intraperitoneally, i.p.). For some experiments B6.129P2-Ace^tm2Unc (ACE^−/−; lacking somatic ACE, generous gift from the Dr. O. Smithies, Duke University), or B6;129S6-Tnf^tm1Gkl (TNF-α-knockout mice, Jackson Labs) were used. Studies conformed, and were approved by the University Committee on Use and Care of Animals at the University of Michigan.\n(§2) Short Bowel Syndrome Model: A 70% mid-small bowel resection was performed (i.e. bowel between 3.5 cm distal to the ligament of Treitz and 3.5 cm proximal to the ileocecal valve), followed by an end-to-end jejuno-ileal anastomosis with 7-0 monofilament, absorbable suture. Postoperatively a subcutaneous bolus of 3 ml 0.9% saline solution was given to maintain hydration status.\n(§3) Sham operation: Mid-small bowel was transsected and re-anastomosed without bowel-resection.\nAnnexin V staining: Apoptosis was determined by flow cytometry based on the cell surface expression of phosphatidylserine using Annexin V staining (BD PharMingen, San Diego, Calif.). Propidium iodide was utilized to simultaneously monitor cell necrosis. Flow cytometry was performed by using standard techniques. Separation of EC from IEL was done by forward- and side-scatter gating characteristics. Further confirmation of EC and IEL purity was performed with specific staining of EC with antibody generated by a hybridoma G8.8 and a pan-lymphoid antibody (anti-CD45, PharMingen, San Diego, Calif.): Purity exceeded >98%.\nMucosal cell isolation: Isolation of mucosal cells was performed using standard protocols. […]\n(§4) To further understand the relevance of ACE expression on EC apoptosis, ACE-inhibition was used. […] After 1 week, mice were killed, EC apoptotic rates assessed, and IEL mRNA and protein isolated."}, "[2]": {"system": "epithelial cell (EC) apoptosis", "assay": "Epithelial cell apoptosis by TUNEL staining in SBS and Sham mice given ACE-I", "format": "in vivo, mouse", "conditions": "for EC Apoptosis (TUNEL analysis): 0.6 mg/kg/day i.p. 7 days", "experimental": "as §1, §2, §3\nTUNEL staining: Paraffin-embedded tissue was assayed with TUNEL (Terminal deoxynucleotidyl transferase Biotin-dUTP Nick End Labeling) staining, according to slight modification of manufacturer's instructions (ApopTag InSitu Apoptosis Detection Kit, Serological Corporation, Norcross, Ga.): slides were incubated with only ⅓ of the recommended concentration of TdT enzyme, in order to avoid over-staining. Apoptosis rate (percent of EC showing apoptosis) was assessed with TUNEL staining and by morphological criteria (nuclear margination, chromatin and cytoplasmic condensation, shrinkage from neighboring cells, and formation of apoptotic bodies with nuclear and cytoplasmic fragmentation). Each assessment of apoptosis consists of the mean of 8 different crypt-villus-complexes.\n(§5) To further understand the relevance of ACE expression on EC apoptosis, ACE-inhibition was used. ACE-I (enalaprilat, 0.6 mg/kg/day i.p.) was given to both SBS (SBS+ACE-I), and sham operated (Sham+ACE-I) mice over a 7 day period, starting on the day after surgery. This latter group was studied as an additional control to assess the effects of ACE-I in the absence of a SBS. After 1 week, mice were killed, EC apoptotic rates assessed, and IEL mRNA and protein isolated."}, "[3]": {"system": "SBS mice", "assay": "Histology (villus height, crypt depth) of mid-small bowel in SBS and Sham mice given ACE-I", "format": "in vivo, mouse", "conditions": "for Crypt depth / Villus height: 0.6 mg/kg/day i.p., 1 week postoperatively, 0.6 mg/kg/day", "experimental": "as §1, §2, §3\nHistology: A 0.5 cm segment of mid-small bowel was fixed in 10% formaldehyde, and processed for hematoxylin and eosin staining. Villus height and crypt depth were measured using a calibrated micrometer. Each measurement consisted of a mean of 16 different low power fields.\nas §5"}, "[4]": {"system": "IEL ACE mRNA", "assay": "IEL ACE mRNA by real time PCR in SBS and Sham mice given ACE-I", "format": "in vivo, mouse", "conditions": "enalaprilat 0.6 mg/kg/day i.p. 7 days, ratio ACE-cDNA copies over β-actin-cDNA copies", "experimental": "as §2, §3\nIEL purification: Isolation of purified IEL from EC was performed by direct magnetic separation. Magnetic beads conjugated with antibody to CD45 (pan-lymphoid marker) were used to segregate IEL from EC (BioMag SelectaPure Anti-Mouse CD 45R Antibody Particles, Polyscience Inc., Warrington, Pa.). Magnetic separation was performed twice to further deplete EC. […]\nReal time PCR: Real-time PCR was run to better quantify actual changes in ACE expression. cDNA was also used for real time PCR. The same primers for ACE and β-actin were used as for conventional PCR, SYBR Green I was utilized for fluorescence. […] Ct- values of ACE and β-actin were converted to numbers of cDNA copies, and results expressed as the ratio of ACE over β-actin expression.\nas §4"}, "[5]": {"system": "IEL ACE protein", "assay": "IEL ACE protein by immunoblot in SBS and Sham mice given ACE-I", "format": "in vivo, mouse", "conditions": "0.6 mg/kg/day i.p. 7 days, ratio of ACE over β-actin protein", "experimental": "as §2, §3\nIEL purification: Isolation of purified IEL from EC was performed by direct magnetic separation. Magnetic beads conjugated with antibody to CD45 (pan-lymphoid marker) were used to segregate IEL from EC (BioMag SelectaPure Anti-Mouse CD 45R Antibody Particles, Polyscience Inc., Warrington, Pa.). […]\nImmunoblot analysis: Protein was extracted from isolated IEL and immunoblots performed by using a Bio-Rad protein assay kit (Bio-Rad Laboratories, Hercules, Calif.), with standard methods. […] Expression for β-actin was determined in the same fashion by re-probing membranes with purified anti-mouse β-actin (1:12000, Sigma-Aldrich, St. Louis, Mo.). Results are expressed as the ratio of ACE over β-actin protein expression.\nas §4"}, "[6]": {"system": "IEL TNF-α mRNA", "assay": "IEL TNF-α mRNA by RT-PCR in SBS and Sham mice given ACE-I", "format": "in vivo, mouse", "conditions": "for IEL TNF-α mRNA: 0.6 mg/kg/day i.p. 7 days, ratio over β-actin mRNA", "experimental": "as §2, §3\nIEL purification: Isolation of purified IEL from EC was performed by direct magnetic separation. Magnetic beads conjugated with antibody to CD45 (pan-lymphoid marker) were used to segregate IEL from EC (BioMag SelectaPure Anti-Mouse CD 45R Antibody Particles, Polyscience Inc., Warrington, Pa.). Magnetic separation was performed twice to further deplete EC. Final IEL purity was greater than 99% by flow cytometry.\nIsolation of total RNA: A guanidine isothiocyanate/chloroform extraction method was performed using Trizol (Gibco BRL, Gaithersburg, Md.) according to manufacturer's directions.\nReverse transcriptase polymerase chain reaction (RT-PCR): mRNA (poly-A positive) was reversed transcribed into cDNA following a standard protocol. Specific primers for selected gene sequences were designed. PCR and gel were run under standard conditions. To ensure that DNA product was generated at the exponential portion of the product curve, the following cycle numbers were used: 28 cycles for ACE; 32 cycles for Rap2 interacting protein and TNF-α; and 34 cycles for lipocalin 2, amphiregulin, leucine-rich-α2-glycoprotein, and angiotensin II receptors. Gel bands were analyzed by DNA sequencing to ensure the correct product. Kodak EDAS System (Rochester, N.Y.) was used for imaging and quantification. Results were expressed as the ratio of the investigated mRNA over the β-actin mRNA expression.\nas §4"}, "[7]": {"system": "DSS-induced colitis", "assay": "DSS-induced colitis mouse model", "format": "in vivo", "experimental": "Male C57BL/6 specific-pathogen-free 2-month-old mice were kept in a 12-hour day/night environment maintained at 23° C. and a relative humidity of 40-60%. All mice drank 2.5% (w/v) DSS in water for 7 days followed by one day of plain water, while being fed normal mouse chow. Mice either received daily enalaprilat injection (0.015 mg/day, injection volume 0.5 ml, intraperitoneal) (n=6, “ACE-I”) or daily normal saline injection 0.5 ml (n=6, “Saline”). Body weight and hemoccult stool reaction were recorded. After the eight days of treatment, mice were euthanized with CO2, and colonic samples were immediately taken for histology and mucosal RNA extraction. Distal 1-cm colonic segments were excised, opened longitudinally, and fixed in 10% neutral buffered formalin. The remainder of the colon, including the cecum, was washed, cut into pieces, and mixed gently at 37° C. in EDTA/dithiothreitol buffer. The resulting mixture of epithelial cells and intraepithelial lymphocytes was then filtered through nylon wool and pelleted by centrifugation. Total RNA of the cell pellet was obtained using TRIZOL reagent and chloroform-isopropanol-ethanol extraction. Reverse transcription of RNA was done in the presence of RNAse inhibitor. RT product was then amplified with forward and reverse primers specific for ACE, TNF-α, and beta-actin, using real-time semiquantitative PCR. PCR results were analyzed by expressing ACE and TNF-α levels as a ratio to beta-actin levels, and were compared using a 2-tailed students' T test. Histologic grading of colitis was done by blinded observers using a standard scale for colitis severity. Histologic scores, as well as body weights and hemoccult results, were compared between groups using a 2-tailed homoscedastic T test."}, "[8]": {"conditions": "ACE-I administration to SBS mice"}}, "note": "Values joined by “and” are separate entries in the source; they are usually repeats but may differ in a detail not shown here. Equal entries are not always repeated.", "data": [{"molecule": "C[C@H](N[C@@H](CCc1ccccc1)C(=O)O)C(=O)N1CCC[C@H]1C(=O)O", "note": "[ACE-I, enalaprilat]", "values": [{"measurement": "EC necrosis (propidium iodide)", "setting": "[1]; SBS + ACE-I mice", "value": "5.2±2.6", "unit": "%"}, {"measurement": "EC necrosis (propidium iodide)", "setting": "[1]; Sham + ACE-I mice", "value": "5.2±2.6", "unit": "%"}, {"measurement": "EC apoptosis (Annexin V staining)", "setting": "[1]; Sham + ACE-I mice, flow cytometry", "value": "16.9±8.8", "unit": "%"}, {"measurement": "Decline of apoptotic rate (TUNEL) compared to untreated SBS mice", "setting": "[2]; SBS + ACE-I group", "value": 58, "unit": "%"}, {"measurement": "EC Apoptosis (TUNEL analysis)", "setting": "[2]; SBS + ACE-I mice", "value": "1.8 ± 0.5", "unit": "%"}, {"measurement": "Decrease of EC apoptosis (TUNEL) compared to untreated Sham mice", "setting": "[2]; Sham + ACE-I group", "value": 48, "unit": "%"}, {"measurement": "EC Apoptosis (TUNEL analysis)", "setting": "[2]; Sham + ACE-I mice", "value": "1.9 ± 0.4", "unit": "%"}, {"measurement": "Location of apoptotic cells (TUNEL)", "setting": "[2]; after ACE-I administration, untreated SBS and Sham: crypts and lower villi", "value": "confined to the crypts"}, {"measurement": "Change in crypt depth compared to SBS mice", "setting": "[3]; [8]", "value": "significant (P=0.02), additional increase in crypt depth"}, {"measurement": "Change in villus height compared to SBS mice", "setting": "[3]; [8]", "value": "unchanged"}, {"measurement": "Crypt depth", "setting": "[3]; SBS + ACE-I mice", "value": "145±22 μm and 145 ± 22° μm"}, {"measurement": "Villus height", "setting": "[3]; SBS + ACE-I mice", "value": "552±56", "unit": "μm"}, {"measurement": "Alterations in histological features", "setting": "[3]; Sham + ACE-I mice", "value": "no significant alterations"}, {"measurement": "Crypt depth", "setting": "[3]; Sham + ACE-I mice", "value": "87±6", "unit": "μm"}, {"measurement": "Villus height", "setting": "[3]; Sham + ACE-I mice", "value": "340±20", "unit": "μm"}, {"measurement": "IEL ACE mRNA", "setting": "[4]; SBS + ACE-I mice", "value": "0.63 ± 0.25"}, {"measurement": "IEL ACE mRNA", "setting": "[4]; Sham + ACE-I mice", "value": "0.66 ± 0.22"}, {"measurement": "IEL ACE protein", "setting": "[5]; SBS + ACE-I mice", "value": "0.14 ± 0.03"}, {"measurement": "IEL ACE protein", "setting": "[5]; Sham + ACE-I mice", "value": "0.13 ± 0.01"}, {"measurement": "IEL TNF-α mRNA", "setting": "[6]; SBS + ACE-I mice", "value": "0.5 ± 0.07"}, {"measurement": "IEL TNF-α mRNA", "setting": "[6]; Sham + ACE-I mice", "value": "0.37 ± 0.07"}, {"measurement": "Expression of TNF-α (FIG. 4)", "setting": "[6]; mice with massive small bowel resection administered ACE-I", "value": "decreased expression of TNF-α"}, {"measurement": "ACE levels (mRNA)", "setting": "[7]; DSS + ACE-I, colonic mucosal ACE as a ratio to beta-actin levels", "value": "0.08 ± 0.13"}, {"measurement": "Hemocult onset", "setting": "[7]; DSS + ACE-I, enalaprilat 0.015 mg/day i.p. daily", "value": "4.8 ± 0.8", "unit": "days"}, {"measurement": "Body Weight Loss", "setting": "[7]; DSS + ACE-I, enalaprilat 0.015 mg/day i.p. daily, 2.5% DSS 7 days", "value": "16.6 ±+2.7%"}, {"measurement": "Histologic Grade (histologic colitis score)", "setting": "[7]; DSS + ACE-I, enalaprilat 0.015 mg/day i.p. daily, after eight days", "value": "11.8 ± 1.5"}, {"measurement": "Colon histology (FIG. 5)", "setting": "[7]; DSS colitis, daily enalaprilat injection, saline controls: essentially complete loss of crypts", "value": "significant areas retaining colonic crypts as well as surface epithelial cells"}, {"measurement": "Time course of development of heme-positive stools", "setting": "[7]; compared to mice treated only with saline injection (FIG. 6)", "value": "significantly delayed"}]}]}
